Measured values published in US9028845B2, “Chimeric immunomodulatory compounds and methods of using the same-IV” (Dynavax Technologies Corporation, priority 2001, dated 2015).
Strand notation (5' to 3'): a small letter for the sugar, then the base; units joined by * are phosphorothioate-linked, units joined directly phosphodiester-linked; [ ] holds rarer units or linkages, { } end groups; capitals alone tell only the bases. d = 2'-deoxy (DNA)

Assays:
[1] = system: human PBMCs; test: Human PBMC cytokine response assay (IFN-γ and IFN-α in cell-free medium by ELISA), with or without cPLGA; assay type: cell-based;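 for IFN-α (pg/ml) mean: 20 µg/mL compound for 24 hours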;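 for IFN-γ (pg/ml) mean: 20 µg/mL compound for 24 hours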
[2] = system: PBMCs; test: Human PBMC proliferation assay (3H-thymidine incorporation); assay type: cell-based; settings: Experiment A; for mean cpm: 2 μg/ml
[3] = Table 24, mean of donors 28234-28237
[4] = Table 25, mean of donors 28250-28253
[5] = donor 28066, 20 ug/ml, 24 h, + PLGA = premixed with 100 μg/ml cPLGA
[6] = donor 28067, 20 ug/ml, 24 h, + PLGA = premixed with 100 μg/ml cPLGA
[7] = donor 28068, 20 ug/ml, 24 h, + PLGA = premixed with 100 μg/ml cPLGA
[8] = mean of Donors 1-2, 20 μg/ml, 24 h
[9] = mean of Donors 3-4, 20 μg/ml, 24 h
[10] = mean of Donors 5-6, 20 μg/ml (mixtures: 20 μg/ml total), 24 h
[11] = mean of Donors 7-8, 20 μg/ml, 24 h
[12] = mean of Donors 9-12, 20 μg/ml, 24 h
[13] = mean of donors 110, 112, 119, 120, Table 14
[14] = mean of donors 28057-28060, Table 16
[15] = mean of donors 28065-28068, 20 ug/ml, 24 h, + PLGA = premixed with 100 μg/ml cPLGA
[16] = mean of donors 28185-28188, Table 15
[17] = mean of donors 28218-28221, 20 μg/ml, 24 h

## 5′-TGACTGTGAACCTTAGAGATGA-3′ (SEQ ID NO: 3) (dT*dG*dA*dC*dT*dG*dT*dG*dA*dA*dC*dC*dT*dT*dA*dG*dA*dG*dA*dT*dG*dA) [Compound P-7, negative control, reference compound]
[1]; Table 24, donor 28236
  IFN-α: 16 pg/mL
  IFN-γ: 7 pg/mL
[1]; Table 24, donor 28237
  IFN-α: 16 pg/mL
  IFN-γ: 4 pg/mL
[1]; [3]
  IFN-α mean: 28 pg/mL
  IFN-γ mean: 7 pg/mL
[1]; Table 25, donor 28250
  IFN-a: 16 pg/mL
[1]; Table 25, donor 28250, polynucleotides/spacers at amounts equivalent to the CIC, spacers alone 9 uM
  IFN-g: 104 pg/mL
[1]; Table 25, donor 28251
  IFN-a: 16 pg/mL
  IFN-g: 1 pg/mL
[1]; Table 25, donor 28252
  IFN-a: 16 pg/mL
  IFN-g: 39 pg/mL
[1]; Table 25, donor 28253
  IFN-a: 16 pg/mL
  IFN-g: 1 pg/mL
[1]; [4]
  IFN-a mean: 16 pg/mL
  IFN-g mean: 36 pg/mL
[1]; donor 110, Table 14
  IFN-α: 2 pg/mL
  IFN-γ: 124 pg/mL
[1]; donor 112, Table 14
  IFN-α: 32 pg/mL
  IFN-γ: 24 pg/mL
[1]; donor 119, Table 14
  IFN-α: 474 pg/mL
  IFN-γ: 16 pg/mL
[1]; donor 120, Table 14
  IFN-α: 2 pg/mL
  IFN-γ: 40 pg/mL
[1]; donor 28057, Table 16
  IFN-α: 0 pg/mL
  IFN-γ: 1 pg/mL
[1]; donor 28058, Table 16
  IFN-α: 0 pg/mL
  IFN-γ: 2 pg/mL
[1]; donor 28059, Table 16
  IFN-α: 0 pg/mL
  IFN-γ: 3 pg/mL
[1]; donor 28060, Table 16
  IFN-α: 0 pg/mL
  IFN-γ: 4 pg/mL
[1]; donor 28065 (high background), 20 ug/ml, 24 h, + PLGA = premixed with 100 μg/ml cPLGA, 1000 = outside assay limits
  IFN-γ (pg/ml) 28065: 397 pg/mL
[1]; donor 28065, 20 ug/ml, 24 h, + PLGA = premixed with 100 μg/ml cPLGA
  IFN-α (pg/ml) 28065: 0 pg/mL
[1]; [5]
  IFN-α (pg/ml) 28066: 8 pg/mL
  IFN-γ (pg/ml) 28066: 1 pg/mL
[1]; [6]
  IFN-α (pg/ml) 28067: 0 pg/mL
  IFN-γ (pg/ml) 28067: 8 pg/mL
[1]; [7]
  IFN-α (pg/ml) 28068: 3 pg/mL
  IFN-γ (pg/ml) 28068: 15 pg/mL
[1]; donor 28185, Table 15
  IFN-a: 4 pg/mL
  IFN-g: 0 pg/mL
[1]; donor 28186, Table 15
  IFN-a: 25 pg/mL
  IFN-g: 4 pg/mL
[1]; donor 28187, Table 15
  IFN-a: 5 pg/mL
  IFN-g: 19 pg/mL
[1]; donor 28188, Table 15
  IFN-a: 31 pg/mL
  IFN-g: 2 pg/mL
[1]; donor 28218, 20 μg/ml, 24 h
  IFN-a (pg/ml) 28218: 32 pg/mL
  IFN-g (pg/ml) 28218: 5 pg/mL
[1]; donor 28219, 20 μg/ml, 24 h
  IFN-a (pg/ml) 28219: 32 pg/mL
  IFN-g (pg/ml) 28219: 5 pg/mL
[1]; donor 28220, 20 μg/ml, 24 h
  IFN-a (pg/ml) 28220: 32 pg/mL
  IFN-g (pg/ml) 28220: 5 pg/mL
[1]; donor 28221, 20 μg/ml, 24 h
  IFN-a (pg/ml) 28221: 32 pg/mL
  IFN-g (pg/ml) 28221: 5 pg/mL
[1]; [8]
  IFN-α (pg/ml) mean: 0 pg/mL
  IFN-γ (pg/ml) mean: 231 pg/mL
[1]; [9]
  IFN-α (pg/ml) mean: 15 pg/mL
  IFN-γ (pg/ml) mean: 5 pg/mL
[1]; [10]
  IFN-α (pg/ml) mean: 57 pg/mL
  IFN-γ (pg/ml) mean: 37 pg/mL
[1]; [11]
  IFN-α (pg/ml) mean: 0 pg/mL
  IFN-γ (pg/ml) mean: 2 pg/mL
[1]; [12]
  IFN-α mean: 2
  IFN-γ mean: 3
[1]; [13]
  IFN-α (pg/ml) mean: 128 pg/mL
  IFN-γ (pg/ml) mean: 51 pg/mL
[1]; [14]
  IFN-α (pg/ml) mean: 0 pg/mL
  IFN-γ (pg/ml) mean: 2 pg/mL
[1]; [15]
  IFN-α (pg/ml) mean: 3 pg/mL
  IFN-γ (pg/ml) mean: 105 pg/mL
[1]; [16]
  IFN-a (pg/ml) mean: 16 pg/mL
  IFN-g (pg/ml) mean: 6 pg/mL
[1]; [17]
  IFN-a (pg/ml) mean: 32 pg/mL
  IFN-g (pg/ml) mean: 5 pg/mL
[1]; mean ×2, Table 15
  IFN-a (pg/ml) ×2: 32 pg/mL
[1]; mean ×4, Table 15
  IFN-g (pg/ml) ×4: 25 pg/mL
[1]; used alone (no cPLGA)
  immunomodulatory activity (IFN-γ / IFN-α secretion), in words: no activity
[2]; Donor 146, 2 μg/ml
  cpm1: 7620 cpm
  cpm2: 8362 cpm
  cpm3: 9686 cpm
[2]; Donor 146 mean
  mean cpm: 8556 cpm
[2]; Donor 147, 2 μg/ml
  cpm1: 9783 cpm
  cpm2: 9841 cpm
  cpm3: 10476 cpm
[2]; Donor 147 mean
  mean cpm: 10033 cpm
[2]; mean of Donors 146 and 147, 2 μg/ml
  mean of both: 9295 cpm
